Tested on: peripheral blood mononuclear cells (PBMC)
Experiment: Cytokine and immune-function gene expression of PBMC in vitro (qRT-PCR, 41 immune-related genes)
Assay type: cell-based, human
Experimental: After a screening visit at which blood was drawn to test for IgG antibody against HSV-1 and subjects were interviewed for inclusion/exclusion criteria, selected subjects returned for blood draws on day 1. After the blood draw on day 1, subjects in group A only were dosed with SADBE. A petrolatum donut was applied with a cotton swab to form about a 1 cm diameter donut on skin on the inner aspect of the upper arm. Then a separate cotton swab was dipped in a 2% SADBE solution (w/v) in DMSO, and the swab was then used to apply about 10-20 mg of solution over about a 1 cm diameter circle within the petrolatum donut. Immediately after application, the application site was covered with TEGADERM. Subjects were advised to remove the TEGADERM and rinse and wipe the spot three hours later. The group A subjects then returned for blood draws on days 15 and 57 and were queried about adverse events on those dates.
PBMC were isolated using SepMate PBMC isolation tubes (Stem Cell Technologies, Vancouver, Canada) and Ficoll-Paque according to the manufacturer's instructions. PBMC were isolated and suspended in negative control medium at 2 million cells/ml. PBMC suspension (100 μL) was added to 100 μL of medium in quadruplicate in 96-well plates. The plates were prepared in advance and stored at −70° C. The wells were in five different conditions in quadruplicate with these final concentrations after addition of the 100 μL of PBMC suspension in negative control medium. • 1. Negative control in medium (RPMI with glutamine and pen/strep, supplemented with 10% human A/B serum). • 2. Medium plus 16 μg/ml protein from heat-inactivated HSV-1-infected Vero cell extracts. • 3. Medium plus heat-inactivated HSV-1 cell-free virus at a final 7.5 million pfu/ml. • 4. Medium plus Candida cell extract. (Greer item number M15A50, 20,000 pnu/ml allergenic extract mixed molds Candida albicans, was diluted 1/50 into medium). • 5. Positive control, medium plus 10 μg/ml concanavalin A.
Two plates were created for each subject at each collection point. One plate was incubated for 2 days at 37° C. in a humidified 5% CO2 atmosphere and then RNA was isolated from the pooled contents of the 4 wells of a given condition for a specific patient, and the RNA was stored at −70° C. and subsequently used for quantitative real time PCR analysis of gene expression of 41 immune-related genes.
As noted above, after 2 days of growth of the PBMC in a 37° C. humidified 5% CO2 incubator in a 96-well plate, four wells of a single condition (negative control, positive control, heat-inactivated HSV-1, HSV-1-infected cell extracts, or Candida extract) with cells from a single subject (200 μL in each well) were pooled, and the RNA was immediately isolated with Trizol reagent and chloroform by Qiagen RNeasy MiniElute clean up kit Qiagen cat #74204, according to manufacturer's instructions into a final volume of 13 μL, and then flash frozen on powdered dry ice, and stored at −70° C. in aliquots of 3 μL for RNA quantification and 10 μL for PCR analysis.
RNA was preamplified with the Qiagen RT2 PreAMP cDNA synthesis kit (Ref. 330451) and custom RT2 PreAmp primer mix (Ref. 330141) starting with about 50 ng RNA according to the procedure of RT preamp cDNA synthesis handbook date March 2011, pages 17-20. The amplification reactions (final 120 μL) were frozen at −70° C. and used for qPCR analysis the next day.
qPCR was done with the Qiagen RT PCR profiler gene analysis kit (catalog number 330451) using RT2 Sybr Green Rox qPCR Mastermix (24) (Part 330523) and Custom RT2 PCR array plates (Ref. 330171). For this 675 μL 2×RT2 SYBR green mastermix, 51 μL pre-AMP synthesis reaction, and 623 μL RNase free water were mixed, and then 25 μL of the mixture was added to 48 wells on the left or right half of the custom PCR plate. The PCR instrument was Applied Biosystems 7900HT fast real time PCR. […]

[1] = Group A, HSV-infected cell extracts

SMILES: CCCCOc1c(OCCCC)c(=O)c1=O [SADBE, 3,4-Dibutoxy-3-cyclobutene-1,2-dione]
- Ratio of absolute IFNG gene expression in group A vs. Groups B + C pooled (Candida, group A day 57 after SADBE): 2.684
- CCL2 ratio of PBMC absolute gene expression day 15/day 1 (Group A, Candida): 0.73
- CCL2 ratio of PBMC absolute gene expression day 57/day 1 (Group A, Candida): 1.16
- CCL3 ratio of PBMC absolute gene expression day 15/day 1 (Group A, Candida): 0.33
- CCL3 ratio of PBMC absolute gene expression day 57/day 1 (Group A, Candida): 1.79
- CCL7 ratio of PBMC absolute gene expression day 15/day 1 (Group A, Candida): 0.66
- CCL7 ratio of PBMC absolute gene expression day 57/day 1 (Group A, Candida): 2.03
- CCR5 ratio of PBMC absolute gene expression day 15/day 1 (Group A, Candida): 1.16
- CCR5 ratio of PBMC absolute gene expression day 57/day 1 (Group A, Candida): 1.42
- CD80 ratio of PBMC absolute gene expression day 15/day 1 (Group A, Candida): 0.75
- CD80 ratio of PBMC absolute gene expression day 57/day 1 (Group A, Candida): 1.57
- CXCL2 ratio of PBMC absolute gene expression day 15/day 1 (Group A, Candida): 0.39
- CXCL2 ratio of PBMC absolute gene expression day 57/day 1 (Group A, Candida): 1.10
- CXCL5 ratio of PBMC absolute gene expression day 15/day 1 (Group A, Candida): 0.46
- CXCL5 ratio of PBMC absolute gene expression day 57/day 1 (Group A, Candida): 1.45
- CXCL9 ratio of PBMC absolute gene expression day 15/day 1 (Group A, Candida): 2.52
- CXCL9 ratio of PBMC absolute gene expression day 57/day 1 (Group A, Candida): 14.21
- CXCL10 ratio of PBMC absolute gene expression day 15/day 1 (Group A, Candida): 2.87
- CXCL10 ratio of PBMC absolute gene expression day 57/day 1 (Group A, Candida): 12.8
- CXCL11 ratio of PBMC absolute gene expression day 15/day 1 (Group A, Candida): 1.06
- CXCL11 ratio of PBMC absolute gene expression day 57/day 1 (Group A, Candida): 2.53
- DDX58 ratio of PBMC absolute gene expression day 15/day 1 (Group A, Candida): 1.08
- DDX58 ratio of PBMC absolute gene expression day 57/day 1 (Group A, Candida): 1.29
- FOXP3 ratio of PBMC absolute gene expression day 15/day 1 (Group A, Candida): 1.16
- FOXP3 ratio of PBMC absolute gene expression day 57/day 1 (Group A, Candida): 2.01
- GATA3 ratio of PBMC absolute gene expression day 15/day 1 (Group A, Candida): 1.12
- GATA3 ratio of PBMC absolute gene expression day 57/day 1 (Group A, Candida): 0.28
- ICAM1 ratio of PBMC absolute gene expression day 15/day 1 (Group A, Candida): 1.03
- ICAM1 ratio of PBMC absolute gene expression day 57/day 1 (Group A, Candida): 1.27
- IFNA1 ratio of PBMC absolute gene expression day 15/day 1 (Group A, Candida): 1.42
- IFNA1 ratio of PBMC absolute gene expression day 57/day 1 (Group A, Candida): 2.13
- IFNB1 ratio of PBMC absolute gene expression day 15/day 1 (Group A, Candida): 1.03
- IFNB1 ratio of PBMC absolute gene expression day 57/day 1 (Group A, Candida): 0.93
- IFNG ratio of PBMC absolute gene expression day 15/day 1 (Group A, Candida): 0.81
- IFNG ratio of PBMC absolute gene expression day 57/day 1 (Group A, Candida): 8.54
- IL1B ratio of PBMC absolute gene expression day 15/day 1 (Group A, Candida): 0.17
- IL1B ratio of PBMC absolute gene expression day 57/day 1 (Group A, Candida): 1.73
- IL1R1 ratio of PBMC absolute gene expression day 15/day 1 (Group A, Candida): 0.69
- IL1R1 ratio of PBMC absolute gene expression day 57/day 1 (Group A, Candida): 0.9
- IL1RN ratio of PBMC absolute gene expression day 15/day 1 (Group A, Candida): 1
- IL1RN ratio of PBMC absolute gene expression day 57/day 1 (Group A, Candida): 1.91
- IL2 ratio of PBMC absolute gene expression day 15/day 1 (Group A, Candida): 0.75
- IL2 ratio of PBMC absolute gene expression day 57/day 1 (Group A, Candida): 6.31
- IL4 ratio of PBMC absolute gene expression day 15/day 1 (Group A, Candida): 1.12
- IL4 ratio of PBMC absolute gene expression day 57/day 1 (Group A, Candida): 1.52
- IL5 ratio of PBMC absolute gene expression day 15/day 1 (Group A, Candida): 1.23
- IL5 ratio of PBMC absolute gene expression day 57/day 1 (Group A, Candida): 1.10
- IL8 ratio of PBMC absolute gene expression day 15/day 1 (Group A, Candida): 0.44
- IL8 ratio of PBMC absolute gene expression day 57/day 1 (Group A, Candida): 1.89
- IL10 ratio of PBMC absolute gene expression day 15/day 1 (Group A, Candida): 0.6
- IL10 ratio of PBMC absolute gene expression day 57/day 1 (Group A, Candida): 1.12
- IL12A ratio of PBMC absolute gene expression day 15/day 1 (Group A, Candida): 1.02
- IL12A ratio of PBMC absolute gene expression day 57/day 1 (Group A, Candida): 1.64
- IL12B ratio of PBMC absolute gene expression day 15/day 1 (Group A, Candida): 0.78
- IL12B ratio of PBMC absolute gene expression day 57/day 1 (Group A, Candida): 3.61
- IL13 ratio of PBMC absolute gene expression day 15/day 1 (Group A, Candida): 0.6
- IL13 ratio of PBMC absolute gene expression day 57/day 1 (Group A, Candida): 4.28
- IL15 ratio of PBMC absolute gene expression day 15/day 1 (Group A, Candida): 1.09
- IL15 ratio of PBMC absolute gene expression day 57/day 1 (Group A, Candida): 2.18
- IL16 ratio of PBMC absolute gene expression day 15/day 1 (Group A, Candida): 1.02
- IL16 ratio of PBMC absolute gene expression day 57/day 1 (Group A, Candida): 0.81
- JAK2 ratio of PBMC absolute gene expression day 15/day 1 (Group A, Candida): 1.1
- JAK2 ratio of PBMC absolute gene expression day 57/day 1 (Group A, Candida): 1.68
- LTA ratio of PBMC absolute gene expression day 15/day 1 (Group A, Candida): 1.15
- LTA ratio of PBMC absolute gene expression day 57/day 1 (Group A, Candida): 1.94
- LYZ ratio of PBMC absolute gene expression day 15/day 1 (Group A, Candida): 2.22
- LYZ ratio of PBMC absolute gene expression day 57/day 1 (Group A, Candida): 0.93
- MX1 ratio of PBMC absolute gene expression day 15/day 1 (Group A, Candida): 1.28
- MX1 ratio of PBMC absolute gene expression day 57/day 1 (Group A, Candida): 1.34
- NOD1 ratio of PBMC absolute gene expression day 15/day 1 (Group A, Candida): 1.19
- NOD1 ratio of PBMC absolute gene expression day 57/day 1 (Group A, Candida): 1.18
- SPP1 ratio of PBMC absolute gene expression day 15/day 1 (Group A, Candida): 2.32
- SPP1 ratio of PBMC absolute gene expression day 57/day 1 (Group A, Candida): 7.34
- STAT1 ratio of PBMC absolute gene expression day 15/day 1 (Group A, Candida): 1.12
- STAT1 ratio of PBMC absolute gene expression day 57/day 1 (Group A, Candida): 3.36
- STAT4 ratio of PBMC absolute gene expression day 15/day 1 (Group A, Candida): 1.07
- STAT4 ratio of PBMC absolute gene expression day 57/day 1 (Group A, Candida): 1.76
- TNF ratio of PBMC absolute gene expression day 15/day 1 (Group A, Candida): 0.85
- TNF ratio of PBMC absolute gene expression day 57/day 1 (Group A, Candida): 1.22
- TNFSF10 ratio of PBMC absolute gene expression day 15/day 1 (Group A, Candida): 1.02
- TNFSF10 ratio of PBMC absolute gene expression day 57/day 1 (Group A, Candida): 1.52
- TNFSF13B ratio of PBMC absolute gene expression day 15/day 1 (Group A, Candida): 1.14
- TNFSF13B ratio of PBMC absolute gene expression day 57/day 1 (Group A, Candida): 1.62
- CCL2 ratio of PBMC absolute gene expression day 15/day 1 [1]: 0.88
- CCL2 ratio of PBMC absolute gene expression day 57/day 1 [1]: 1.21
- CCL3 ratio of PBMC absolute gene expression day 15/day 1 [1]: 1.31
- CCL3 ratio of PBMC absolute gene expression day 57/day 1 [1]: 4.60
- CCL7 ratio of PBMC absolute gene expression day 15/day 1 [1]: 0.92
- CCL7 ratio of PBMC absolute gene expression day 57/day 1 [1]: 0.75
- CCR5 ratio of PBMC absolute gene expression day 15/day 1 [1]: 1.00
- CCR5 ratio of PBMC absolute gene expression day 57/day 1 [1]: 0.93
- CD80 ratio of PBMC absolute gene expression day 15/day 1 [1]: 0.90
- CD80 ratio of PBMC absolute gene expression day 57/day 1 [1]: 0.93
- CXCL2 ratio of PBMC absolute gene expression day 15/day 1 [1]: 1.02
- CXCL2 ratio of PBMC absolute gene expression day 57/day 1 [1]: 2.79
- CXCL5 ratio of PBMC absolute gene expression day 15/day 1 [1]: 1.24
- CXCL5 ratio of PBMC absolute gene expression day 57/day 1 [1]: 6.03
- CXCL9 ratio of PBMC absolute gene expression day 15/day 1 [1]: 1.12
- CXCL9 ratio of PBMC absolute gene expression day 57/day 1 [1]: 0.91
- CXCL10 ratio of PBMC absolute gene expression day 15/day 1 [1]: 0.82
- CXCL10 ratio of PBMC absolute gene expression day 57/day 1 [1]: 0.49
- CXCL11 ratio of PBMC absolute gene expression day 15/day 1 [1]: 0.53
- CXCL11 ratio of PBMC absolute gene expression day 57/day 1 [1]: 0.31
- DDX58 ratio of PBMC absolute gene expression day 15/day 1 [1]: 0.72
- DDX58 ratio of PBMC absolute gene expression day 57/day 1 [1]: 0.94
- FOXP3 ratio of PBMC absolute gene expression day 15/day 1 [1]: 1.15
- FOXP3 ratio of PBMC absolute gene expression day 57/day 1 [1]: 1.11
- GATA3 ratio of PBMC absolute gene expression day 15/day 1 [1]: 2.84
- GATA3 ratio of PBMC absolute gene expression day 57/day 1 [1]: 2.6
- ICAM1 ratio of PBMC absolute gene expression day 15/day 1 [1]: 1.05
- ICAM1 ratio of PBMC absolute gene expression day 57/day 1 [1]: 0.77
- IFNA1 ratio of PBMC absolute gene expression day 15/day 1 [1]: 0.80
- IFNA1 ratio of PBMC absolute gene expression day 57/day 1 [1]: 1.29
- IFNB1 ratio of PBMC absolute gene expression day 15/day 1 [1]: 0.65

— patent US11957783B2, “Topical immunosensitizers to treat viral and fungal infections” (Squarex, LLC, priority 2018, dated 2024)
